# Patent US8778966B2, “Quinolinone derivatives as PARP and tank inhibitors” (Janssen Pharmaceutica, NV, priority 2007, dated 2014)
# Columns and labels:
# [1] = target: T1, Human PARP-1 enzyme (Homo sapiens, UniProt P09874); experiment: In vitro Scintillation Proximity Assay (SPA) for PARP-1 inhibitory activity; type: biochemical; conditions: read-out: in vitro SPA assay PARP-1 pIC50 (converted)
# T1 construct: purchased Trevigen
# Method in brief: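 SPA assay: nicked-DNA-activated PARP-1 (0.1–0.2 μg/ml) ADP-ribosylates biotinylated histones (2 μg/ml) using [3H]-NAD+, 20 min at RT in Tris pH 8/DTT/MgCl2, stopped with 2 mM NAD+. Blank-subtracted cpm expressed as % control; IC50 by linear interpolation, reported as pIC50 (10−5 to 3×10−9 M tested).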
# [2] = test system: HCT116 cells; experiment: Antiproliferative activity, Alamar Blue assay, HCT116 cells; type: cell-based, human; conditions: Homo sapiens, HCT-116, HCT116 cells, Alamar Blue; read-out: HCT116 antiproliferative activity pIC50 (converted)
# Method in brief: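 Readout is resazurin fluorescence (ex 540, em 590 nm) after a 4 h dye incubation at 37 °C, following 4-day compound treatment of HCT116 cells plated 24 h earlier. Results expressed as % viable cells versus untreated; pIC50 derived from probit-fitted IC50.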
# T1 sequence (P09874 whole entry): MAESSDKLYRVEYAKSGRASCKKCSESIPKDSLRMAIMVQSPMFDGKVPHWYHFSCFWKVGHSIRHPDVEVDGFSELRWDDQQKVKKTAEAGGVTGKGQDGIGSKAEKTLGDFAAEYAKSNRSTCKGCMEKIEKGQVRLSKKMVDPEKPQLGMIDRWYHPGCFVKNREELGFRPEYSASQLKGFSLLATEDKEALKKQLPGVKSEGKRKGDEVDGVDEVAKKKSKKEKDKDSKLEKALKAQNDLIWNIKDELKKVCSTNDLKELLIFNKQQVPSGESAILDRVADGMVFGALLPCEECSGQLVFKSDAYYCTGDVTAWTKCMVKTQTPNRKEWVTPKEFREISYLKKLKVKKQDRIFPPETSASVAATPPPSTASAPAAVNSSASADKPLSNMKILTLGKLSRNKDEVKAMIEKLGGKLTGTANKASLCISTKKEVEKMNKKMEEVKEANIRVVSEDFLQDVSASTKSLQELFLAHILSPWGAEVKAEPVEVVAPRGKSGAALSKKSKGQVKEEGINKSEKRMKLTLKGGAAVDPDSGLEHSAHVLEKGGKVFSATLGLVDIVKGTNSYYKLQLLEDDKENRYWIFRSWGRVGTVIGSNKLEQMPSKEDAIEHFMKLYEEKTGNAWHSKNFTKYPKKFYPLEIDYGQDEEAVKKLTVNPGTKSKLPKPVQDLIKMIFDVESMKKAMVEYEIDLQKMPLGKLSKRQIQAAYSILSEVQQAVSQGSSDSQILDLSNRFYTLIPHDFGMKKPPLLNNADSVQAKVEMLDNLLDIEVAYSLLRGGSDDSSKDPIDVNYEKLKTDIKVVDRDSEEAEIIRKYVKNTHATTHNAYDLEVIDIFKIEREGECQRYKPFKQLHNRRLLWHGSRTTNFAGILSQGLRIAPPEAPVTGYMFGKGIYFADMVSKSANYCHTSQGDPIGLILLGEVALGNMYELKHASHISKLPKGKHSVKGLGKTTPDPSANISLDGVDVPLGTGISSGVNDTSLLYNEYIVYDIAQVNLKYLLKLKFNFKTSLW
IC50 [1],IC50 [2],Structure (SMILES)
158 nM,2000 nM,CCc1cc2ccc(C(C)(C#N)Cc3cccc(CO)n3)cc2[nH]c1=O (stereo not drawn) [Compound 345]
100 nM,1260 nM,CCc1cc2ccc(C(C)(C#N)Cc3ccc(OC)nc3)cc2[nH]c1=O (stereo not drawn) [Compound 352]
79.4 nM,200 nM,CCc1cc2ccc(C(C)(C#N)Cc3cccc(OC)n3)cc2[nH]c1=O (stereo not drawn) [Compound 353]
126 nM,631 nM,CCc1cc2ccc(C(C)(C#N)Cc3cnc(OC)nc3Cl)cc2[nH]c1=O (stereo not drawn) [Compound 356]
79.4 nM,398 nM,CCc1cc2ccc(C(C)(C#N)Cc3cnc(OC)nc3OC)cc2[nH]c1=O (stereo not drawn) [Compound 357]
50.1 nM,3160 nM,CCc1cc2ccc(C(C)(C#N)Cc3cc(OC)nc(OC)n3)cc2[nH]c1=O (stereo not drawn) [Compound 358]
79.4 nM,200 nM,CCc1cc2ccc(C(C)(C#N)Cc3nc(Cl)cc(N(C)C)n3)cc2[nH]c1=O (stereo not drawn) [Compound 359]
100 nM,1260 nM,CCc1cc2ccc(C(C)(C#N)Cc3nccc(OC)n3)cc2[nH]c1=O (stereo not drawn) [Compound 360]
158 nM,5010 nM,CCc1cc2ccc(C(C)(C#N)Cc3cc(OCCOC)nc(C)n3)cc2[nH]c1=O (stereo not drawn) [Compound 363]
158 nM,1260 nM,CCc1cc2ccc(C(C)(C#N)Cc3cc(N(C)C)nc(Cl)n3)cc2[nH]c1=O (stereo not drawn) [Compound 364]
126 nM,631 nM,CCc1cc2ccc(C(C)(C#N)Cc3cc(OC)nc(C)n3)cc2[nH]c1=O (stereo not drawn) [Compound 366]
79.4 nM,2510 nM,CCc1cc2ccc(C(C)(C#N)Cc3cc(OCCOC)nc(Cl)n3)cc2[nH]c1=O (stereo not drawn) [Compound 367]
316 nM,1580 nM,CCc1cc2ccc(C(C)(C#N)Cc3nc(C)cc(C)n3)cc2[nH]c1=O (stereo not drawn) [Compound 368]
126 nM,3980 nM,CCc1cc2ccc(C(C)(C#N)Cc3nccc(OCCOC)n3)cc2[nH]c1=O (stereo not drawn) [Compound 369]
200 nM,1580 nM,CCc1cc2ccc(C(C)(C#N)Cc3nc(Cl)cc(OCCOC)n3)cc2[nH]c1=O (stereo not drawn) [Compound 370]
100 nM,398 nM,CCc1cc2ccc(C(C)(C#N)Cc3cc(Cl)nc(Cl)c3)cc2[nH]c1=O (stereo not drawn) [Compound 372]
100 nM,7940 nM,CCc1cc2ccc(C(C)(C#N)Cc3cc(OC)ccn3)cc2[nH]c1=O (stereo not drawn) [Compound 373]
316 nM,631 nM,CCc1cc2ccc(C(C)(C#N)CC3CCc4ccccc4O3)cc2[nH]c1=O (stereo not drawn) [Compound 399]
